From article PMC7872314, “Modeling Bioavailable Concentrations in Zebrafish Cell Lines and Embryos Increases the Correlation of Toxicity Potencies across Test Systems” (Environmental Science & Technology, 2020)
Like-named read-outs stand apart in the source and are kept apart here.

Assays:
[1] = tested on: ZF4 (fibroblasts) cell line; assay: alamarBlue (AB) endpoint of AB/CFDA/NR multiplex, cellular respiration; type: cell-based, zebrafish (Danio rerio); details: Danio rerio, Fibroblast
[2] = tested on: ZF4 (fibroblasts) cell line; assay: BCA assay (MTS/BCA multiplex), protein amount; type: cell-based, zebrafish (Danio rerio); details: Danio rerio, Fibroblast
[3] = tested on: zebrafish embryos; parameters: method as in earlier work; details: nominal, cited from earlier work
[4] = tested on: zebrafish embryos; assay: animal or person; type: in vivo, zebrafish (Danio rerio); details: for EC50: Danio rerio
[5] = tested on: ZFL (hepatocytes) cell line; assay: cells; type: cell-based, zebrafish (Danio rerio); details: Danio rerio, Hepatocyte
[6] = tested on: zebrafish cell lines vs zebrafish embryo; assay: Potency ratios IC50;x/EC50;x (cytotoxicity assays vs mFET); parameters: species or system zebrafish (Danio rerio)
[7] = tested on: ZFL (hepatocytes) cell line; assay: cells; type: cell-based, zebrafish (Danio rerio); details: Danio rerio, Hepatocyte; remark: listed apart in the source
[8] = tested on: ZFL (hepatocytes) cell line; assay: cells; type: cell-based, zebrafish (Danio rerio); details: Danio rerio, Hepatocyte; remark: listed apart in the source
[9] = tested on: ZF4 and ZFL cell lines; assay: Cytotoxicity assays, all endpoints, both cell lines (mean/range); type: cell-based, zebrafish (Danio rerio); details: 48 h
[10] = tested on: ZFL (hepatocytes) cell line; assay: cells; type: cell-based, zebrafish (Danio rerio); details: Danio rerio, Hepatocyte; remark: listed apart in the source
[11] = tested on: ZFL (hepatocytes) cell line; assay: cells; type: cell-based, zebrafish (Danio rerio); details: Danio rerio, Hepatocyte; remark: listed apart in the source
[12] = tested on: ZFL (hepatocytes) cell line; assay: cells; type: cell-based, zebrafish (Danio rerio); details: Danio rerio, Hepatocyte; remark: listed apart in the source
[13] = tested on: ZF4 (fibroblasts) cell line; assay: Neutral red, fluorescence (NRf), AB/CFDA/NR multiplex, lysosome stability; type: cell-based, zebrafish (Danio rerio); details: Danio rerio, Fibroblast
[14] = ref Comptox, PubChem or DrugBank; cited from earlier work
[15] = tested on: ZF4 (fibroblasts) cell line; assay: ATP assay (ATP/LDH multiplex), ATP metabolism; type: cell-based, zebrafish (Danio rerio); details: Danio rerio, Fibroblast
[16] = tested on: ZF4 (fibroblasts) cell line; assay: CFDA endpoint of AB/CFDA/NR multiplex, membrane stability; type: cell-based, zebrafish (Danio rerio); details: Danio rerio, Fibroblast
[17] = tested on: ZF4 (fibroblasts) cell line; assay: MTS assay (MTS/BCA multiplex), NAD(P)H metabolism; type: cell-based, zebrafish (Danio rerio); details: Danio rerio, Fibroblast
[18] = tested on: ZFL (hepatocytes) cell line; assay: cells; type: cell-based, zebrafish (Danio rerio); details: Danio rerio, Hepatocyte; remark: listed apart in the source
[19] = tested on: ZF4 (fibroblasts) cell line; assay: Neutral red, absorbance (NRa), AB/CFDA/NR multiplex, lysosome stability; type: cell-based, zebrafish (Danio rerio); details: Danio rerio, Fibroblast

CC1(C)C(C=C(Cl)c2ccc(Cl)cc2)C1C(=O)OC(C#N)c1ccc(F)c(Oc2ccccc2)c1 (centres unmarked) [Flumethrin, flumethrin]
IC50 ([1]; AB - ZF4, log10 of IC50, read-out: LogIC50 (converted)): 351 µM
IC50 ([1]; AB - ZF4, read-out: IC50): 351 µM
IC50 ([1]; ZF4, 48 h exposure, nominal, log10, read-out: logIC50 (log10 IC50;nom) AB (converted)): 347 µM
IC50 ([1]; ZF4, 48 h exposure, nominal, read-out: IC50;nom AB): 351 µM
IC50 ([2]; BCA - ZF4, log10 of IC50, read-out: LogIC50 (converted)): 42.1 µM
IC50 ([2]; BCA - ZF4, read-out: IC50): 42.1 µM
IC50 ([2]; ZF4, 48 h exposure, nominal, log10, read-out: logIC50 (log10 IC50;nom) BCA (converted)): 41.7 µM
IC50 ([2]; ZF4, 48 h exposure, nominal, read-out: IC50;nom BCA): 42.1 µM
EC50 ([3]; 144 hpf, converted): 0.216 µM
logEC50 144 hpf ([3]; log10): -6.667 M
difference in toxicity (EC50;nom) between 48 hpf and 144 hpf ([4]; 48 hpf time point less sensitive than 144 hpf): approximately the same
log EC50;nom (mFET) ([4]; 48 hpf, nominal, log10, listed as Flu): -6.562 M
EC50 ([4]; 48 hpf, nominal, log10, read-out: log EC50;nom (mFET) (converted)): 0.275 µM
EC50 ([4]; 48 hpf, nominal, read-out: EC50;nom (embryo)): 0.14 µg/mL
EC50 ([4]; read-out: EC50 48hpf): 0.274 µM
EC50 ([4]; read-out: EC50;nom (mFET)): 0.274 µM
IC50 ([5]; NR-fluo - ZFL, log10 of IC50, read-out: LogIC50 (converted)): 159 µM
IC50 ([5]; NR-fluo - ZFL, read-out: IC50): 159 µM
IC50 ([5]; ZFL, 48 h exposure, nominal, log10, read-out: logIC50 (log10 IC50;nom) NRf (converted)): 158 µM
IC50 ([5]; ZFL, 48 h exposure, nominal, read-out: IC50;nom NRf): 159 µM
in vitro toxicity (IC50;free) higher than EC50;nom ([6]; ZF4 NRa endpoint vs embryo): 10 fold
potency ratio IC50;nom/EC50;nom (median) ([6]; median over cytotoxicity endpoints, nominal, 48 h cells / 48 hpf mFET): 698
difference in sensitivity between embryo (EC50;nom) and cells (IC50;nom) ([6]; nominal concentrations, higher potency in the mFET): two to three log-scales more sensitive in the mFET
potency ratio IC50;nom/EC50;nom, BCA-ZFL endpoint ([6]; single endpoint BCA-ZFL, less sensitive in the cell-based assay): 10,000 fold
IC50 ([7]; ATP - ZFL, log10 of IC50, read-out: LogIC50 (converted)): 441 µM
IC50 ([7]; ATP - ZFL, read-out: IC50): 441 µM
IC50 ([7]; ZFL, 48 h exposure, nominal, log10, read-out: logIC50 (log10 IC50;nom) ATP (converted)): 437 µM
IC50 ([7]; ZFL, 48 h exposure, nominal, read-out: IC50;nom ATP): 441 µM
IC50 ([8]; AB - ZFL, log10 of IC50, read-out: LogIC50 (converted)): 244 µM
IC50 ([8]; AB - ZFL, read-out: IC50): 244 µM
IC50 ([8]; ZFL, 48 h exposure, nominal, log10, read-out: logIC50 (log10 IC50;nom) AB (converted)): 245 µM
IC50 ([8]; ZFL, 48 h exposure, nominal, read-out: IC50;nom AB): 244 µM
IC50 ([9]; Danio rerio, read-out: Mean log IC50nom, mean of all cytotoxicity endpoints (without LDH) in ZF4 and ZFL, 48 h, log10 (converted)): 229 µM
Mean log IC50nom ([9]; mean of all cytotoxicity endpoints (without LDH) in ZF4 and ZFL, log10, listed as Flu): -3.637 M
IC50 ([10]; MTS - ZFL, log10 of IC50, read-out: LogIC50 (converted)): 414 µM
IC50 ([10]; MTS - ZFL, read-out: IC50): 414 µM
IC50 ([10]; ZFL, 48 h exposure, nominal, log10, read-out: logIC50 (log10 IC50;nom) MTS (converted)): 417 µM
IC50 ([10]; ZFL, 48 h exposure, nominal, read-out: IC50;nom MTS): 414 µM
IC50 ([11]; NR-abs - ZFL, log10 of IC50, read-out: LogIC50 (converted)): 160 µM
IC50 ([11]; NR-abs - ZFL, read-out: IC50): 160 µM
IC50 ([11]; ZFL, 48 h exposure, nominal, log10, read-out: logIC50 (log10 IC50;nom) NRa (converted)): 158 µM
IC50 ([11]; ZFL, 48 h exposure, nominal, read-out: IC50;nom NRa): 160 µM
IC50 ([12]; CFDA - ZFL, log10 of IC50, read-out: LogIC50 (converted)): 118 µM
IC50 ([12]; CFDA - ZFL, read-out: IC50): 118 µM
IC50 ([12]; ZFL, 48 h exposure, nominal, log10, read-out: logIC50 (log10 IC50;nom) CFDA (converted)): 117 µM
IC50 ([12]; ZFL, 48 h exposure, nominal, read-out: IC50;nom CFDA): 118 µM
IC50 ([13]; NR-fluo - ZF4, log10 of IC50, read-out: LogIC50 (converted)): 213 µM
IC50 ([13]; NR-fluo - ZF4, read-out: IC50): 213 µM
IC50 ([13]; ZF4, 48 h exposure, nominal, log10, read-out: logIC50 (log10 IC50;nom) NRf (converted)): 214 µM
IC50 ([13]; ZF4, 48 h exposure, nominal, read-out: IC50;nom NRf): 213 µM
Physiological charge [14]: 0
logKoa [14]: 11.7
logKow [14]: 6.97
IC50 ([15]; ATP - ZF4, log10 of IC50, read-out: LogIC50 (converted)): 317 µM
IC50 ([15]; ATP - ZF4, read-out: IC50): 317 µM
IC50 ([15]; ZF4, 48 h exposure, nominal, log10, read-out: logIC50 (log10 IC50;nom) ATP (converted)): 316 µM
IC50 ([15]; ZF4, 48 h exposure, nominal, read-out: IC50;nom ATP): 317 µM
IC50 ([16]; CFDA - ZF4, log10 of IC50, read-out: LogIC50 (converted)): 170 µM
IC50 ([16]; CFDA - ZF4, read-out: IC50): 170 µM
IC50 ([16]; ZF4, 48 h exposure, nominal, log10, read-out: logIC50 (log10 IC50;nom) CFDA (converted)): 170 µM
IC50 ([16]; ZF4, 48 h exposure, nominal, read-out: IC50;nom CFDA): 170 µM
IC50 ([17]; MTS - ZF4, log10 of IC50, read-out: LogIC50 (converted)): 83.1 µM
IC50 ([17]; MTS - ZF4, read-out: IC50): 83.1 µM
IC50 ([17]; ZF4, 48 h exposure, nominal, log10, read-out: logIC50 (log10 IC50;nom) MTS (converted)): 83.2 µM
IC50 ([17]; ZF4, 48 h exposure, nominal, read-out: IC50;nom MTS): 83.1 µM
IC50 ([18]; BCA - ZFL, log10 of IC50, read-out: LogIC50 (converted)): 6130 µM
IC50 ([18]; BCA - ZFL, read-out: IC50): 6130 µM
IC50 ([18]; ZFL, 48 h exposure, nominal, log10, read-out: logIC50 (log10 IC50;nom) BCA (converted)): 6170 µM
IC50 ([18]; ZFL, 48 h exposure, nominal, read-out: IC50;nom BCA): 6130 µM
IC50 ([19]; NR-abs - ZF4, log10 of IC50, read-out: LogIC50 (converted)): 104 µM
IC50 ([19]; NR-abs - ZF4, read-out: IC50): 104 µM
IC50 ([19]; ZF4, 48 h exposure, nominal, log10, read-out: logIC50 (log10 IC50;nom) NRa (converted)): 105 µM
IC50 ([19]; ZF4, 48 h exposure, nominal, read-out: IC50;nom NRa): 104 µM
IC50 ([19]; ZF4 cell line, NRa endpoint, nominal, read-out: IC50;nom): 53.1 µg/mL
